The results in this text go back to patent US5135955A, “Propanamine derivatives” (Eli Lilly and Company, priority 1989, dated 1992).

Where a name gives a salt, the structure may show the parent alone.

In one series the test system is Candida albicans A26. Kind of series: in vitro antifungal activity, Candida albicans (MIC). Type of series: cell-based. To be noted: 35° C., 48 hours, RPMI 1640 plus 10% fetal calf serum, 95-100% inhibition of growth, read-out: minimum inhibitory concentration (MIC), C.a. Here is the method: (§1) The antifungal activity was assayed in vitro against Candida abicans A26, Trichophyton mentagrophytes CDC27, and Aspergillus flavus M152. The inocula, previously frozen under liquid nitrogen in a lactose, glycerol and water solution, were standardized by counting spores with a hemocytometer. Final concentrations (C. albicans, 1×10^5 cells/m; T. mentagrophytes, 1×10^6 cells/ml; A. flavus, 1×10^5 cells/ml) in RPMI 1640 plus 10% fetal calf serum were added to each of the 96 wells of a microtiter plate (100 μl/well).The compounds to be tested were solubilized in either water or ethanol and added to the microtiter wells in serial dilutions to give final concentrations in the range 0.039-20 μg/ml. The plates were incubated at 35° C. for 48 hours. The minimum inhibitory concentration (MIC) values were determined as the highest dilution showing 95-100% inhibition of growth.
(§2) ^a Minimum inhibitory concentration expressed in μg/ml
^b C.a. means Candida albicans A26

The subject of the next series is Aspergillus flavus M152. Kind of series: in vitro antifungal activity, Aspergillus flavus (MIC). Type of series: cell-based. To be noted: 35° C., 48 hours, RPMI 1640 plus 10% fetal calf serum, 95-100% inhibition of growth, read-out: minimum inhibitory concentration (MIC), A.f. Here is the method: as §1, §2
^c A.f. means Aspergillus flavus M152

For series [1], the system named is Trichophyton mentagrophytes CDC27. Kind of series: in vitro antifungal activity, Trichophyton mentagrophytes (MIC). Type of series: cell-based. To be noted: 35° C., 48 hours, RPMI 1640 plus 10% fetal calf serum, 95-100% inhibition of growth, read-out: minimum inhibitory concentration (MIC), T.m. Here is the method:
as §1, §2
^d T.m. means Trichophyton mentagrophytes CDC27

Series [2] relates to thromboplastin clotting time in human plasma. Kind of series: prothrombin time test (thromboplastin clotting time in human plasma). To be noted: 37° C., human plasma. Format: biochemical. The method, then: Briefly, to 0.1 ml of each of human plasma, normal saline and thromboplastin was added 0.03 ml of the test compound of the present invention (2 mg/ml in 50 percent methanol). The clotting time was measured at 37° C. with a Fibrometer.
^a Expressed in seconds
^b Concentration of compound tested in micrograms per milliliter of […]

A further series is described as follows: solubility in methanol. Format: physicochemical.
Where [3] appears, read: 45 micrograms per milliliter of plasma.
Where [4] appears, read: 90 micrograms per milliliter of plasma.
The mark [5] stands for this setting: 180 micrograms per milliliter of plasma.
The mark [6] stands for this setting: 22 micrograms per milliliter of plasma.

`CCCCCCOc1ccc(CC(CN)c2ccc(F)cc2)cc1` (stereo not drawn) [Example 26, 4(Hexyloxy)-β-(4-fluorophenyl)benzenepropanamine]: the figures for the MIC (with Candida albicans A26; with Aspergillus flavus M152; in series [1]) were 10 µg/mL, 5 µg/mL and 10 µg/mL, respectively. In addition, the figures for the plasma prothrombin time in series [2] (setting [3]), in series [2] (setting [4]) and in series [2] (setting [5]) were 29 s, 67 s and 500 s, respectively.

On to `Cl.NCC(Cc1cccc2ccccc12)c1ccccc1` (stereo not drawn) [Example 22, β-Phenyl-1-naphthalenepropanamine hydrochloride], for which the MIC with Candida albicans A26 came to 20 µg/mL; in the series with Aspergillus flavus M152, 10 µg/mL; in series [1] it was 10 µg/mL. The plasma prothrombin time in series [2] (setting [5]) was above 300 s.

As for `CCCCOc1ccc(CC(CN)c2ccccc2)cc1.Cl` (stereo not drawn) [Example 6, 4-(Butyloxy)-β-phenylbenzenepropanamine hydrochloride], the MIC in the series with Candida albicans A26 turned out to be 10 µg/mL; in the series on Aspergillus flavus M152, 5 µg/mL; in series [1], 5 µg/mL. Also, the plasma prothrombin time worked out at 20 s in series [2] (setting [6]), 26 s in series [2] (setting [3]), 46 s in series [2] (setting [4]) and 83 s in series [2] (setting [5]).

Take `CSCCOc1ccc(CCC(C)N(C)C)cc1` (stereo not drawn) [Example 57, 4-(2-Methylthioethoxy)-N,N,α-trimethylbenzenepropanamine hydrochloride]: the MIC with Candida albicans A26 is 1.25 µg/mL; with Aspergillus flavus M152 it was 20 µg/mL; in series [1] it was 0.312 µg/mL.

As for `CCCCCOc1ccc(CC(CN)c2ccccc2)cc1.Cl` (stereo not drawn) [Example 4, 4-(Pentyloxy)-β-phenylbenzenepropanamine hydrochloride], the MIC with Candida albicans A26 was found to be 10 µg/mL; with Aspergillus flavus M152, 5 µg/mL; in series [1] it was 5 µg/mL. In addition, the plasma prothrombin time in series [2] (setting [3]) is 37 s; in series [2] (setting [4]), 91 s; in series [2] (setting [5]) it was above 300 s.

As to `CCCCCCOc1ccc(CC(CN)c2ccccc2)cc1` (stereo not drawn) [Example 1, 4-(Hexyloxy)-β-phenylbenzenepropanamine], the MIC (in the series on Candida albicans A26; in the series on Aspergillus flavus M152; in series [1]) was 10 µg/mL each time. The plasma prothrombin time is 32 s in series [2] (11 micrograms per milliliter of plasma); 43 s in series [2] (setting [6]); 91 s in series [2] (setting [3]); above 300 s in series [2] (setting [4]); above 300 s in series [2] (setting [5]).

As to `CCCCCCOc1ccc(CC(CN)c2ccc(OC)c(OC)c2)cc1` (stereo not drawn) [Example 16, .varies.-(Hexyloxy)-β-(3,4-dimethoxy)phenylbenzenepropanamine hydrochloride], the MIC is 20 µg/mL in the series on Candida albicans A26, 10 µg/mL in the series on Aspergillus flavus M152 and 10 µg/mL in series [1]. Further, the plasma prothrombin time in series [2] (setting [6]) was 27 s; in series [2] (setting [3]), 57 s; in series [2] (setting [4]), 81 s; in series [2] (setting [5]), 235 s.

For the compound `CCCCOc1ccc(CCC(CC)N(C)C)cc1` (stereo not drawn) [Example 70, 4-Butoxy-α-ethyl-N,N-dimethylbenzenepropanamine hydrochloride], the MIC came out at 0.156 µg/mL in the series on Candida albicans A26, 10 µg/mL in the series on Aspergillus flavus M152 and 0.156 µg/mL in series [1].

On to `CC(CCc1ccc(OC2CCCC2)cc1)NCCN1CCOCC1` (centres unmarked) [Example 47, N-[3-[4-(Cyclopentyloxy)phenyl]-1-methylpropyl]-4-morpholineethanamine dihydrochloride], for which the MIC with Candida albicans A26 stood at 10 µg/mL; with Aspergillus flavus M152, 10 µg/mL; in series [1] it was 20 µg/mL.

`CCCCOc1ccc(CCC(C)N(C)C)cc1` (stereo not drawn) [Example 41, 4-Butoxy-N,N,α-trimethylbenzenepropanamine hydrochloride]: the figures for the MIC (in the series with Candida albicans A26; in the series on Aspergillus flavus M152; in series [1]) were 0.156 µg/mL, 1.25 µg/mL and 0.078 µg/mL, respectively. Further, the plasma prothrombin time in series [2] (setting [3]) was determined as 21 s; in series [2] (setting [4]), 24 s; in series [2] (setting [5]) it was 41 s.

In the case of `CC(CCc1ccc(OCCC2CCCCC2)cc1)NC1CCCC(C(F)(F)F)C1` (stereo not drawn) [Example 39, 4-(2-Cyclohexylethoxy)-α-methyl-N-[3-(trifluoromethyl)-cyclohexyl]benzenepropanamine hydrochloride], the MIC with Candida albicans A26 was 5 µg/mL; with Aspergillus flavus M152 it was above 20 µg/mL; in series [1], above 20 µg/mL. Also, the plasma prothrombin time in series [2] (setting [3]) turned out to be 90 s.

Consider `CC(CCc1ccc(OCCn2ccnc2)cc1)N(C)C` (stereo not drawn) [Example 61, N,N,α-Trimethyl-4-[2-(1H-imidazol-1-yl)ethoxy]benzenepropanamine], for which the MIC is 5 µg/mL in the series with Candida albicans A26, above 20 µg/mL with Aspergillus flavus M152 and 10 µg/mL in series [1].

As for `CCCS(=O)(=O)Oc1ccc(CCC(C)N(C)C)cc1` (centres unmarked) [Example 67], the MIC in the series on Candida albicans A26 was 20 µg/mL; with Aspergillus flavus M152, 20 µg/mL; in series [1], above 20 µg/mL.

For the compound `CCCCCCCCOc1ccc(CC(CN)c2ccccc2)cc1` (stereo not drawn) [Example 2, 4-(Octyloxy)-β-phenylbenzenepropanamine], the values for the MIC (with Candida albicans A26; in the series on Aspergillus flavus M152; in series [1]) were 20 µg/mL, 10 µg/mL and 20 µg/mL, respectively. Further, the plasma prothrombin time in series [2] (setting [6]) is 38 s; in series [2] (setting [3]) it was 79 s; in series [2] (setting [4]) it was above 300 s; in series [2] (setting [5]), above 300 s.

Regarding `CC(CCc1ccc(OS(=O)(=O)c2ccccc2)cc1)N(C)C` (centres unmarked) [Example 66, Benzenesulfonic acid 4-[3-(dimethylamino)butyl]phenylester], the MIC with Candida albicans A26 worked out at 10 µg/mL; in the series with Aspergillus flavus M152, 20 µg/mL; in series [1], 5 µg/mL.

Consider `CCCCCCCOc1ccc(CC(CN)c2ccc(OC)cc2)cc1` (stereo not drawn) [Example 21, 4-(Heptyloxy)-β-(4-methoxy)phenylbenzenepropanamine], for which the solubility in methanol result in “solubility in methanol” is given as “insoluble”.
